Assay results taken from ChEMBL document CHEMBL3396995, “Synthesis and biological evaluation of novel pyrrolidine acid analogs as potent dual PPARα/γ agonists” (Bioorg Med Chem Lett, 2015).

Key:
[1] = target: T1, Peroxisome proliferator-activated receptor alpha (Homo sapiens, UniProt Q07869); test: Agonist activity at GAL4 tagged human PPARalpha ligand binding domain expressed in HEK293 cells by luciferase reporter gene assay; type: cell-based; conditions: read-out: EC50
T1 sequence (Q07869 whole entry): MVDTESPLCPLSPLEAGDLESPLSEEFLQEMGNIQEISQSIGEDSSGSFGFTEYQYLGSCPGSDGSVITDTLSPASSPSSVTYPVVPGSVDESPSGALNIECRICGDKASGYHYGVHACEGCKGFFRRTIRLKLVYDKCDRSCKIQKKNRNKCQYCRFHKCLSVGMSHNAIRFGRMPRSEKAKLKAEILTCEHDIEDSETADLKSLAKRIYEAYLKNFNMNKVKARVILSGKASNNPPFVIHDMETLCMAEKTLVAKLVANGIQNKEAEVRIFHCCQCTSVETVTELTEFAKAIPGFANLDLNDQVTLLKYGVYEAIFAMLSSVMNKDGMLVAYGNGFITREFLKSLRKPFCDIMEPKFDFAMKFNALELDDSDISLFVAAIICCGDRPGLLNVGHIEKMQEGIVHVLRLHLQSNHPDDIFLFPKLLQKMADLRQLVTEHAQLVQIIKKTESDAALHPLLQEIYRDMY

Mus musculus [2] = test: Lipid lowering activity in db/db mouse assessed as reduction in fasting triglyceride level at 10 mg/kg, po dosed once daily for 14 days; type: functional; conditions: 336 h
Cytochrome P450 2C9 = Cytochrome P450 2C9 (Homo sapiens, UniProt P11712); test: Inhibition of CYP2C9 (unknown origin); type: ADME
Cytochrome P450 2C9, sequence (P11712 whole entry, the tested form may be a part): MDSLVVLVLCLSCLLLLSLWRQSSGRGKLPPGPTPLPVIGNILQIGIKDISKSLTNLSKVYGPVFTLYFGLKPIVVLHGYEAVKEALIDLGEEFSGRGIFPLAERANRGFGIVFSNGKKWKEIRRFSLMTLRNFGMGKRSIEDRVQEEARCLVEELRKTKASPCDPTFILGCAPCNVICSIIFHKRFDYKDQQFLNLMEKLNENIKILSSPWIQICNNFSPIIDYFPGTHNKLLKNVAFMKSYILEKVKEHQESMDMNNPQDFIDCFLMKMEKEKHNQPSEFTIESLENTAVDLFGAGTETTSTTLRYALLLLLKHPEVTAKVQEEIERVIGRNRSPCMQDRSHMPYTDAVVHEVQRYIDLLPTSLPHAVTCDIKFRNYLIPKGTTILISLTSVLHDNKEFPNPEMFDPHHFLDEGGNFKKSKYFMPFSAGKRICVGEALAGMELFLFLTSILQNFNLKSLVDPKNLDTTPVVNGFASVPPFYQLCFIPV

[3] = target: T2, Peroxisome proliferator-activated receptor gamma (Homo sapiens, UniProt P37231); test: Agonist activity at GAL4 tagged human PPARgamma ligand binding domain expressed in HEK293 cells by luciferase reporter gene assay; type: cell-based
T2 sequence (P37231 whole entry): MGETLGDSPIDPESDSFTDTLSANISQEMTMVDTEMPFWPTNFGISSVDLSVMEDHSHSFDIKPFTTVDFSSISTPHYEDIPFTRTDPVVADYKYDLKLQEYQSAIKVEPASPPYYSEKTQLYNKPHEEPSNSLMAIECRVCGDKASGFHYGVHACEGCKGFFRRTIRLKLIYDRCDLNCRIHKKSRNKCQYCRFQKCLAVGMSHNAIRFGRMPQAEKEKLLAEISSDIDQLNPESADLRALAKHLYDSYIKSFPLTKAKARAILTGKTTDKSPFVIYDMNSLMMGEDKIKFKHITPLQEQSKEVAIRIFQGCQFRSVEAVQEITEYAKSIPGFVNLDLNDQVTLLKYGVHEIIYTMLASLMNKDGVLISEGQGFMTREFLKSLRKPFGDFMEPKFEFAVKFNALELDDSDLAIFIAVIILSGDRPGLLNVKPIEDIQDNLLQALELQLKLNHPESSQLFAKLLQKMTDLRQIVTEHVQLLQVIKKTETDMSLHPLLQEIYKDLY

Mus musculus [4] = test: Antidiabetic activity in db/db mouse assessed as reduction in fasting glucose level at 10 mg/kg, po dosed once daily for 14 days; type: functional; conditions: 336 h
[5] = Oral bioavailability in rat at 10 mg/kg; type: ADME, organism-based; conditions: in vivo
[6] = target: T2, Peroxisome proliferator-activated receptor gamma
Description: (§1) Binding affinity to PPARgamma (unknown origin) using fluorescein-tagged dual PPARalpha/gamma activator by homogeneous fluorescence polarization binding assay

[7] = target: T1, Peroxisome proliferator-activated receptor alpha; test: Binding affinity to PPARalpha (unknown origin) using fluorescein-tagged dual PPARalpha/gamma activator by homogeneous fluorescence polarization binding assay
Cytochrome P450 2C19 = Cytochrome P450 2C19 (Homo sapiens, UniProt P33261); test: Inhibition of CYP2C19 (unknown origin); type: ADME
Cytochrome P450 2C19, sequence (P33261 whole entry): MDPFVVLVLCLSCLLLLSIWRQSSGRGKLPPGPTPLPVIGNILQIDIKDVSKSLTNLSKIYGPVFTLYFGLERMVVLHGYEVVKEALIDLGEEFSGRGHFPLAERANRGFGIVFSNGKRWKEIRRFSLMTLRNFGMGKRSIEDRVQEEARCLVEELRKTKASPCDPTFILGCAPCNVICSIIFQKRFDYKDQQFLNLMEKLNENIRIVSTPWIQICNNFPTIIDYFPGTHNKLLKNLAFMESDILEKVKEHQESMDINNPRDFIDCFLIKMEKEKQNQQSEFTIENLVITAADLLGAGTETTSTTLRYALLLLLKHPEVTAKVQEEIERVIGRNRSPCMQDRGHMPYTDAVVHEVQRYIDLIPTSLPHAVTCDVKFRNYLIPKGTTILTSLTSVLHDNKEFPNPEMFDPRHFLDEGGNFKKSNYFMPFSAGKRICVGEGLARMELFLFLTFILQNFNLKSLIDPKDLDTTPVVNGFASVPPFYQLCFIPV

[8] = Half life in rat at 10 mg/kg, po; type: ADME, organism-based; design: dose 10 mg/kg, route oral; conditions: in vivo
Rattus norvegicus = test: Volume of distribution at steady state in rat at 10 mg/kg, po; type: ADME, organism-based; design: dose 10 mg/kg, route oral; conditions: in vivo
[9] = target: T2, Peroxisome proliferator-activated receptor gamma; remark: listed apart in the source
Description: as §1

EC50 [1] [nM] | IC50 (Cytochrome P450 2C9) [nM] | EC50 [3] [nM] | bioavailability [5] [%] | IC50 [6] [nM] | IC50 [7] [nM] | IC50 (Cytochrome P450 2C19) [nM] | half-life [8] [h] | Vdss (Rattus norvegicus) [L/kg] | IC50 [9] [nM] | SMILES | inhibition in vivo at 10 mg/kg (Mus musculus [2]) [%] | inhibition in vivo at 10 mg/kg (Mus musculus [4]) [%]
90 | 3200 | 30 | 65 | 20 | 960 | 8800 | 1.54 | 0.47 |  | Cc1oc(-c2ccccc2)nc1CCOc1ccc(C[C@@H]2CN(c3nccc(C(F)(F)F)n3)C[C@@H]2C(=O)O)cc1 | 48 | 37
5 |  | 30 |  | 80 | 180 |  |  |  |  | Cc1oc(-c2ccccc2)nc1CCOc1ccc(C[C@@H]2CN(C(=O)Oc3ccccc3)C[C@@H]2C(=O)O)cc1 | 12 | 30
1 |  | 640 |  |  | 610 |  |  |  | 80 | Cc1oc(-c2ccccc2)nc1CCOc1ccc(C[C@@H]2CN(C(=O)Oc3ccccc3)C[C@@H]2C(=O)O)cc1 (racemic) |  | 
20 |  | 540 |  | 690 | 3270 |  |  |  |  | CCOC(=O)N1C[C@@H](CCc2ccc(OCCc3nc(-c4ccccc4)oc3C)cc2)[C@@H](C(=O)O)C1 (racemic) |  | 
10 |  | 160 |  | 90 | 480 |  |  |  |  | Cc1oc(-c2ccccc2)nc1CCOc1ccc(CC[C@@H]2CN(C(=O)Oc3ccccc3)C[C@@H]2C(=O)O)cc1 (racemic) |  | 
10 |  | > 10000 |  | 1590 | 1810 |  |  |  |  | CCOC(=O)N1C[C@H](CCc2ccc(OCCc3nc(-c4ccccc4)oc3C)cc2)[C@@H](C(=O)O)C1 (racemic) |  | 
980 |  | > 10000 |  | 340 | 3250 |  |  |  |  | Cc1oc(-c2ccccc2)nc1CCOc1ccc(CC[C@H]2CN(C(=O)Oc3ccccc3)C[C@@H]2C(=O)O)cc1 (racemic) |  | 
850 |  | > 10000 |  | 210 | 3090 |  |  |  |  | Cc1oc(-c2ccccc2)nc1CCOc1cccc(C[C@H]2CN(C(=O)Oc3ccccc3)C[C@@H]2CC(=O)O)c1 (racemic) |  | 
